# Data: patent US20220153732A1, “PROTEIN SECRETION INHIBITORS” (KEZAR LIFE SCIENCES, priority 2019, published 2022)
# Read-outs that look alike come from different tables or passages of the source.
# Key:
# Type in all cases: cell-based
# [1] = system: human multiple myeloma cell line NCI-H929; assay: H929 Cell Viability Assay; settings: 48 hr, NCI-H929 cells, Celltiter-Glo, read-out: 48 hr H929 Viability Celltiter-Glo: Mean EC50
# Method: Plates were incubated at 37° C., 5% CO2 for 48 hours. After 48 hours, Celltiter-Glo® (Promega) was added to each well and luciferase signal was quantified using Tecan Infinite M1000 Pro for cell viability determination.
# For chemical structures that include one or more stereoisomers, but are illustrated without indicating stereochemistry, the assay data refers to a mixture of stereoisomers.
# [2] = system: HER3-ss+4aa/Gaussia Luciferase; assay: Dox-Induced Her3-ss-Gluc Assay
# How it was run: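 Compounds, diluted in DMSO/media containing doxycycline, were incubated at 37° C., 5% CO2 with cells seeded one day earlier. The cells stably express HER3-ss+4aa/Gaussia luciferase under T-REx control. Where no stereochemistry is shown, data refer to the mixture of stereoisomers.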
# [3] = system: human multiple myeloma cell line U266B1; assay: U266 Cell Viability Assay; settings: U-266, 48 hr, U266B1 cells, Celltiter-Glo, read-out: 48 hr U266 Viability Celltiter-Glo: Mean EC50
# How it was run: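 Viability measured by CellTiter-Glo luciferase signal after 48 h compound exposure (37 °C, 5% CO2) of U266B1 cells in 384-well format. Where stereochemistry is not shown, data refer to the stereoisomer mixture.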
# [4] = system: TNFα-FL/Gaussia Luciferase; assay: Dox Induced TNFα-FL-Gluc Assay
# How it was run: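 Compounds were added in doxycycline-containing DMSO/media to cells plated the previous day and incubated at 37° C under 5% CO2. These cells stably express a TNFα-FL/Gaussia luciferase cDNA whose expression is under T-REx (Dox-inducible) control, selected with Hygromycin and Blasticidin.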
# [5] = system: PD1-ss+10aa/Gaussia Luciferase; assay: Dox-Induced PD1-ss-Gluc Assay
# How it was run: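 Compounds, diluted in DMSO/media with doxycycline, were added to cells plated a day earlier and kept at 37° C under 5% CO2. The cells stably express a Gaussia luciferase construct fused to PD1-ss+10aa, induced via the T-REx system. Unassigned stereochemistry means mixture data.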
# [6] = system: IL-2-FL/Gaussia Luciferase; assay: Dox Induced IL2-FL-Gluc Assay
# How it was run: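 Compounds were added together with doxycycline in DMSO/media and incubated at 37° C., 5% CO2. The cells were a stably selected line carrying IL-2-FL/Gaussia luciferase under T-REx inducible control. Structures drawn without stereochemistry were tested as stereoisomer mixtures.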
# [7] = 24 hr, doxycycline-induced, 293FRT/TO cells; read-out: 24 hr Dox Inducible Her3(ss + 4)Gluc 293FRT/TO: Mean IC50
# [8] = 24 hr, doxycycline-induced, 293FRT/TO cells; read-out: 24 hr Dox Inducible TNFaFLGluc 293FRT/TO: Mean IC50
# [9] = 24 hr, doxycycline-induced, 293FRT/TO cells; read-out: 24 hr Dox Inducible PD1ssGluc 293FRT/TO: Mean IC50
# [10] = 24 hr, doxycycline-induced, 293FRT/TO cells; read-out: 24 hr Dox Inducible IL2FLGIuc 293FRT/TO: Mean IC50
# [11] = 24 hr doxycycline induction, 293FRT/TO cells, Gaussia luciferase signal; read-out: 24 hr Dox Inducible Her3(ss + 4)Gluc 293FRT/TO: Mean IC50
# [12] = 24 hr doxycycline induction, 293FRT/TO cells, Gaussia luciferase signal; read-out: 24 hr Dox Inducible TNFaFLGluc 293FRT/TO: Mean IC50
# [13] = 24 hr doxycycline induction, 293FRT/TO cells, Gaussia luciferase signal; read-out: 24 hr Dox Inducible PD1ssGluc 293FRT/TO: Mean IC50
# [14] = 24 hr doxycycline induction, 293FRT/TO cells, Gaussia luciferase signal; read-out: 24 hr Dox Inducible IL2FLGIuc 293FRT/TO: Mean IC50
SMILES,EC50 [1],"IC50 ([2]; read-out: 24 hr Dox Inducible Her3(ss + 4)Gluc 293FRT/TO: Mean IC50; 24 hr, doxycycline-induced, 293FRT/TO cells)",EC50 [3],"IC50 ([4]; read-out: 24 hr Dox Inducible TNFaFLGluc 293FRT/TO: Mean IC50; 24 hr, doxycycline-induced, 293FRT/TO cells)","IC50 ([5]; read-out: 24 hr Dox Inducible PD1ssGluc 293FRT/TO: Mean IC50; 24 hr, doxycycline-induced, 293FRT/TO cells)","IC50 ([6]; read-out: 24 hr Dox Inducible IL2FLGIuc 293FRT/TO: Mean IC50; 24 hr, doxycycline-induced, 293FRT/TO cells)","IC50 [2, 7]","IC50 [4, 8]","IC50 [5, 9]","IC50 [6, 10]","IC50 [2, 11]","IC50 [4, 12]","IC50 [5, 13]","IC50 [6, 14]"
CC(C)(C)[Si](O[C@@H]1C[C@H](c2csc(NC(=O)c3cccn3Cc3ccncc3)n2)N(c2ccccc2)C1)(c1ccccc1)c1ccccc1 [Compound A322],0.315 µM,0.009 µM,> 25 µM,0.014 µM,0.003 µM,0.009 µM,,,,,,,,
O=C(Nc1nc(C2COc3ccccc3C2)cs1)c1cccn1Cc1ccncc1 (stereo not drawn) [Compound A296],> 25 µM,,> 25 µM,,,,1.21 µM,10.3 µM,0.655 µM,1.15 µM,,,,
"Cc1cc(C(=O)Nc2nc(C(C)(C)OC(C)C)cs2)n(Cc2ccncc2)c1 [Compound A48, N-(4-(2-isopropoxypropan-2-yl)thiazol-2-yl)-4-methyl-1-(pyridin-4-ylmethyl)-1H-pyrrole-2-carboxamide]",> 25 µM,,> 25 µM,,,,,,,,2.69 µM,> 25 µM,1.19 µM,2.22 µM
COc1ccc(O[C@H]2C[C@@H](c3csc(NC(=O)c4cccn4Cc4ccncc4)n3)C2)nc1 [Compound A309],6.11 µM,,14.8 µM,,,,0.071 µM,0.721 µM,0.024 µM,0.199 µM,,,,
O=C(Nc1nc(C2=CCN(c3ccccc3)CC2)cs1)c1cccn1Cc1ccncc1 [Compound A258],23.8 µM,,> 25 µM,,,,,,,,6.4 µM,> 25 µM,0.701 µM,14.5 µM
"CO[C@H]1CC[C@@H](/C=C/c2csc(NC(=O)c3cccn3Cc3ccncc3)n2)CC1 [Compound A254, N-(4-(2-((1s,4s)-4-methoxycyclohexyl)vinyl)thiazol-2-yl)-1-(pyridin-4-ylmethyl)-1H-pyrrole-2-carboxamide]",4.1 µM,,4.13 µM,,,,,,,,0.189 µM,1.53 µM,0.074 µM,0.554 µM
COc1ccccc1C#Cc1csc(NC(=O)c2cccn2Cc2ccncc2)n1 [Compound A141],7.72 µM,,13.1 µM,,,,,,,,0.651 µM,1.82 µM,0.277 µM,1.58 µM
"CC(C)OC(C)(C)c1csc(NC(=O)c2nccn2Cc2ccncc2)n1 [Compound A108, N-(4-(2-isopropoxypropan-2-yl)thiazol-2-yl)-1-(pyridin-4-ylmethyl)-1H-imidazole-2-carboxamide]",> 25 µM,,> 25 µM,,,,,,,,> 25 µM,> 25 µM,> 25 µM,7.27 µM
"O=C(Nc1nc(/C=C/C2=CCCCC2)cs1)c1cccn1Cc1ccncc1 [Compound A244, N-(4-(2-(cyclohex-1-en-1-yl)vinyl)thiazol-2-yl)-1-(pyridin-4-ylmethyl)-1H-pyrrole-2-carboxamide]",17.7 µM,,17.4 µM,,,,,,,,0.225 µM,1.43 µM,0.081 µM,0.648 µM
"CC(C)OC(C)(C)c1csc(NC(=O)c2cccn2CCCc2cccnc2)n1 [Compound A190, N-(4-(2-isopropoxypropan-2-yl)thiazol-2-yl)-1-(3-(pyridin-3-yl)propyl)-1H-pyrrole-2-carboxamide]",> 25 µM,,> 25 µM,,,,,,,,> 18.1 µM,> 25 µM,5.23 µM,3.44 µM
O=C(Nc1nc(/C=C/c2ncc(F)cc2F)cs1)c1cccn1Cc1ccncc1 [Compound A358],17.9 µM,,> 25 µM,,,,0.443 µM,3.57 µM,0.029 µM,0.765 µM,,,,
CC(C)(CCc1ccccn1)c1csc(NC(=O)c2cccn2Cc2ccncc2)n1 [Compound A262],> 25 µM,,> 25 µM,,,,,,,,3.14 µM,24.2 µM,1.46 µM,3.12 µM
"CCc1nc(NC(=O)[C@@H]2CCCN2Cc2ccncc2)sc1C [Compound B26, (S)-N-(4-ethyl-5-methylthiazol-2-yl)-1-(pyridin-4-ylmethyl)pyrrolidine-2-carboxamide]",> 25 µM,,> 25 µM,,,,> 25 µM,> 25 µM,> 25 µM,> 25 µM,,,,
Cc1cc(Cn2cccc2C(=O)Nc2nc(C(C)(C)OC(C)C)cs2)cc(C)n1 [Compound A97],> 25 µM,,> 25 µM,,,,,,,,> 25 µM,> 25 µM,18.9 µM,> 25 µM
"CC(=O)N(C)c1ccc(Cn2cccc2C(=O)Nc2nc(C(C)(C)OC(C)C)cs2)cc1 [Compound A99, N-(4-(2-isopropoxypropan-2-yl)thiazol-2-yl)-1-(4-(N-methylacetamido)benzyl)-1H-pyrrole-2-carboxamide]",> 25 µM,,> 25 µM,,,,,,,,> 25 µM,> 25 µM,19.9 µM,> 25 µM
"CC(C)OC(C)c1csc(NC(=O)c2cccn2Cc2ccncc2)n1 (stereo not drawn) [Compound A28, N-(4-(1-isopropoxyethyl)thiazol-2-yl)-1-(pyridin-4-ylmethyl)-1H-pyrrole-2-carboxamide]",> 25 µM,,> 25 µM,,,,,,,,0.752 µM,3.95 µM,0.462 µM,0.401 µM
"O=C(Nc1nc(/C=C\c2ccccc2)cs1)c1cccn1Cc1ccncc1 [Compound A12, 1-(pyridin-4-ylmethyl)-N-(4-styrylthiazol-2-yl)-1H-pyrrole-2-carboxamide]",18.6 µM,,> 25 µM,,,,,,,,0.338 µM,1.76 µM,0.139 µM,0.566 µM
"CC(OC(C)(C)c1csc(NC(=O)c2cccn2Cc2ccncc2)n1)c1ccc(Cl)cc1 (stereo not drawn) [Compound A5, N-(4-(2-(1-(4-chlorophenyl)ethoxy)propan-2-yl)thiazol-2-yl)-1-(pyridin-4-ylmethyl)-1H-pyrrole-2-carboxamide]",2.44 µM,,23.9 µM,,,,,,,,0.102 µM,0.81 µM,0.043 µM,0.145 µM
C/C(=C\c1csc(NC(=O)c2cccn2Cc2ccncc2)n1)c1ccccc1 [Compound A252],14 µM,,> 25 µM,,,,,,,,1.13 µM,6.93 µM,0.53 µM,1.28 µM
CCN(C(=O)c1cccn1Cc1ccncc1)c1nc(C)cs1 [Compound A98],> 25 µM,,> 25 µM,,,,,,,,> 25 µM,> 25 µM,19.6 µM,> 25 µM
"CC(C)OC(C)(C)c1csc(NC(=O)c2cccn2Cc2ccncc2Br)n1 [Compound A41, 1-((3-bromopyridin-4-yl)methyl)-N-(4-(2-isopropoxypropan-2-yl)thiazol-2-yl)-1H-pyrrole-2-carboxamide]",9.52 µM,,> 25 µM,,,,,,,,2.39 µM,12 µM,0.878 µM,1.98 µM
"CC(C)OC(C)(C)c1csc(NC(=O)c2cccn2CCCc2ccccc2Cl)n1 [Compound A68, 1-(3-(2-chlorophenyl)propyl)-N-(4-(2-isopropoxypropan-2-yl)thiazol-2-yl)-1H-pyrrole-2-carboxamide]",> 25 µM,,> 25 µM,,,,,,,,2.73 µM,> 25 µM,2.07 µM,2.76 µM
